Reference: ChEMBL document CHEMBL4507268 (2021)

How the values were obtained:
Details in all cases: Compound concentration 1.0 uM
[1] = biological target: T1, Serine/threonine-protein kinase BRSK1 (Homo sapiens) (UniProt Q8TDC3)
T1 sequence (whole entry): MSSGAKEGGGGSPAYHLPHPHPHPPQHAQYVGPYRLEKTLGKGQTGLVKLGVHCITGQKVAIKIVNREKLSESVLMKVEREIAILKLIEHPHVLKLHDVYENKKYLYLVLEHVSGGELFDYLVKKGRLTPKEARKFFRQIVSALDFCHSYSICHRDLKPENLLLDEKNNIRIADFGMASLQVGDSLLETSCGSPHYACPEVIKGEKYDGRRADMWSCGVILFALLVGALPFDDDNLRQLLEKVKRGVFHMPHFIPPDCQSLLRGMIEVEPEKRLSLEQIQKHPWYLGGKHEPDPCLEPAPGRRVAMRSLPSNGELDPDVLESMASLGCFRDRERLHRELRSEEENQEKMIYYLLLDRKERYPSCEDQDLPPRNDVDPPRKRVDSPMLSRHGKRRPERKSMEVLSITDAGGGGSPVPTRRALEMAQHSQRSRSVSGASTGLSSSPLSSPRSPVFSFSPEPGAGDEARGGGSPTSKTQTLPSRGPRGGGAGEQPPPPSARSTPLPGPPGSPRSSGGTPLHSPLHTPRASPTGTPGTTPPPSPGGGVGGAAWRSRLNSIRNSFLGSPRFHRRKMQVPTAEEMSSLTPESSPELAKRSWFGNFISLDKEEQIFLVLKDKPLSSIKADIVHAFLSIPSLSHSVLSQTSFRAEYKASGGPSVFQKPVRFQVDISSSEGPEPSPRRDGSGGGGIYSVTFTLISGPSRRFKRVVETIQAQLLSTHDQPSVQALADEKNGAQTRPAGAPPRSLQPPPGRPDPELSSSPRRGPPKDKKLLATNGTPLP

[2] = biological target: T2, Serine/threonine-protein kinase Sgk1 (Homo sapiens) (UniProt O00141)
T2 sequence (whole entry): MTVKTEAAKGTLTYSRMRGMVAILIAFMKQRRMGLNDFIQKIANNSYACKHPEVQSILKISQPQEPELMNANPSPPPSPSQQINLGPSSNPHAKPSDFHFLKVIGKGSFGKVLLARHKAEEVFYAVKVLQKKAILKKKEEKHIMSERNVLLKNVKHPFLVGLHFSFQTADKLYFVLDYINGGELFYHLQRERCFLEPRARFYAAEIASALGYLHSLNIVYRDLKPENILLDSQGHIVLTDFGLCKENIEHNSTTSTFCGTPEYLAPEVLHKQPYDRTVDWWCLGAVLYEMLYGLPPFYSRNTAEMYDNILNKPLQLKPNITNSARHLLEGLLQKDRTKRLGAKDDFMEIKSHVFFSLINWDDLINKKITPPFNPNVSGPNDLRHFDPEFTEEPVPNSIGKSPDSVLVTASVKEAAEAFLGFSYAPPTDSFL

[3] = biological target: T3, Phosphatidylinositol 3-kinase C2 domain-containing subunit gamma (Homo sapiens) (UniProt O75747)
T3 sequence (whole entry): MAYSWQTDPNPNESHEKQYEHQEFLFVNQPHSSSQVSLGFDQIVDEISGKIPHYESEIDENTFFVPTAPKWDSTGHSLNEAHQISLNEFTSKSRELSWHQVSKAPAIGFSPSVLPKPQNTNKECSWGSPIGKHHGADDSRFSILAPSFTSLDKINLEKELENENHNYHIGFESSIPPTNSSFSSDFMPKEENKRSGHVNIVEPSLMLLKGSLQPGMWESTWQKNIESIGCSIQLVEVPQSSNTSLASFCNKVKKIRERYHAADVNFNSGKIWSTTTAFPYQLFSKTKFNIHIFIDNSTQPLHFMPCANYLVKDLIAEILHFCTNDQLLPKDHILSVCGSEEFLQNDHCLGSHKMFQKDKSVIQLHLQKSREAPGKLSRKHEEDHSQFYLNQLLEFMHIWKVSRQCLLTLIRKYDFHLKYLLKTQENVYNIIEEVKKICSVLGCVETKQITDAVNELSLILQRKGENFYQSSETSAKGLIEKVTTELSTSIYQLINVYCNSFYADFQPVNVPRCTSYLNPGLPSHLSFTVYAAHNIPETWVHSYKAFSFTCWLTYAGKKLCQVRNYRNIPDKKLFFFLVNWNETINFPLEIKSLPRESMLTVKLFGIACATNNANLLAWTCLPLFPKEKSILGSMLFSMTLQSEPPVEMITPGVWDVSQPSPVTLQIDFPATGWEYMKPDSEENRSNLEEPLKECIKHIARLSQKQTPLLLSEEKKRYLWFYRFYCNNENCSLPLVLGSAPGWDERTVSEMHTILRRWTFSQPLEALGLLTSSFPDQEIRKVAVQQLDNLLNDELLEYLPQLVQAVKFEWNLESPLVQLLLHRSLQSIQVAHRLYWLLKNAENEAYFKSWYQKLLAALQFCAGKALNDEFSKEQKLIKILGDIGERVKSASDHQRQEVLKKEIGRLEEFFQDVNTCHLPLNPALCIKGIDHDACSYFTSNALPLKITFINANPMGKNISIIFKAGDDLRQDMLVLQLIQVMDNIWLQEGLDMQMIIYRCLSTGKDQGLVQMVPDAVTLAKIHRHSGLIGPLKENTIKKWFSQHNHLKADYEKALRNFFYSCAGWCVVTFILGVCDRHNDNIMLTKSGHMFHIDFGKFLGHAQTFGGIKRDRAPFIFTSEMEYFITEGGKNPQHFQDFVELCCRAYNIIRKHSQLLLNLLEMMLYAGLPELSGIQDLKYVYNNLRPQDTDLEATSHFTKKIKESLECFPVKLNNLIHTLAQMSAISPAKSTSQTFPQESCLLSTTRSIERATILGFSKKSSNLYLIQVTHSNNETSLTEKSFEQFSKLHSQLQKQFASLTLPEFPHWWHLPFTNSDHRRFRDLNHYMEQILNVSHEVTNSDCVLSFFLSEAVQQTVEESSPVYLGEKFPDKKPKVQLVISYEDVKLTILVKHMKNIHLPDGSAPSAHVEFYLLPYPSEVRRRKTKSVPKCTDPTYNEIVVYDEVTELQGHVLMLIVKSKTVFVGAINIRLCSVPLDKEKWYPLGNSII

[4] = biological target: Tyrosine-protein kinase ABL2 (Homo sapiens) (UniProt P42684)
Tyrosine-protein kinase ABL2 (Homo sapiens), sequence (P42684 whole entry): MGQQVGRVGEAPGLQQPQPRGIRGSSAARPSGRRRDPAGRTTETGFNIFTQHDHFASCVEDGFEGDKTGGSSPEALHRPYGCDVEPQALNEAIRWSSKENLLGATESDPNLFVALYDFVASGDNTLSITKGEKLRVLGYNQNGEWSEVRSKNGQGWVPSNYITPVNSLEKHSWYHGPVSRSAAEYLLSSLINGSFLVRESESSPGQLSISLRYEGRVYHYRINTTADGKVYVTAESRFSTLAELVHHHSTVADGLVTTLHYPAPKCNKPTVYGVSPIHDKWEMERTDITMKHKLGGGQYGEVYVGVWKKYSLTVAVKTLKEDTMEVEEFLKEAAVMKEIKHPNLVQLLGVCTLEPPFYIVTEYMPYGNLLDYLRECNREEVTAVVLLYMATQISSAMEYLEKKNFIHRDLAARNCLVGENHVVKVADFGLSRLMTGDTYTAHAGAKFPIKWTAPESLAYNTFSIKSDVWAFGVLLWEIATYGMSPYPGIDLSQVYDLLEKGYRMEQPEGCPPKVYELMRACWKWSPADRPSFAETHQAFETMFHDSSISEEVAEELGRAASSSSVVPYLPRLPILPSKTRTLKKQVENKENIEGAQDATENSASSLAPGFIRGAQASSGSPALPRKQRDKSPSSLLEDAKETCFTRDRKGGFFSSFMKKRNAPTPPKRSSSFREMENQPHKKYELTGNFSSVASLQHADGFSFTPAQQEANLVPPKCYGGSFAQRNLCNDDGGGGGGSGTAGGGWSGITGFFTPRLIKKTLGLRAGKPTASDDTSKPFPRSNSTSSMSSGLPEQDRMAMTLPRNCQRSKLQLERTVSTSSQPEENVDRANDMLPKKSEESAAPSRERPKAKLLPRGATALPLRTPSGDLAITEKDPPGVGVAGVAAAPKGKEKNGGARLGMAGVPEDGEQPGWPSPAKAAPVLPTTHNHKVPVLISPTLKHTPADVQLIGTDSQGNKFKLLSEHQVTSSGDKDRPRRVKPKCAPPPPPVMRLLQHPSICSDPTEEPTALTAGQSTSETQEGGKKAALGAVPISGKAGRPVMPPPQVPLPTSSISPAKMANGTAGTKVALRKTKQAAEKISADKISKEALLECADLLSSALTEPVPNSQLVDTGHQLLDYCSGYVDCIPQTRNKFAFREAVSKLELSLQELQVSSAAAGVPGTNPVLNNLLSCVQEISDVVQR

[5] = biological target: Proto-oncogene tyrosine-protein kinase receptor Ret (Homo sapiens) (UniProt P07949)
Proto-oncogene tyrosine-protein kinase receptor Ret (Homo sapiens), sequence (P07949 whole entry): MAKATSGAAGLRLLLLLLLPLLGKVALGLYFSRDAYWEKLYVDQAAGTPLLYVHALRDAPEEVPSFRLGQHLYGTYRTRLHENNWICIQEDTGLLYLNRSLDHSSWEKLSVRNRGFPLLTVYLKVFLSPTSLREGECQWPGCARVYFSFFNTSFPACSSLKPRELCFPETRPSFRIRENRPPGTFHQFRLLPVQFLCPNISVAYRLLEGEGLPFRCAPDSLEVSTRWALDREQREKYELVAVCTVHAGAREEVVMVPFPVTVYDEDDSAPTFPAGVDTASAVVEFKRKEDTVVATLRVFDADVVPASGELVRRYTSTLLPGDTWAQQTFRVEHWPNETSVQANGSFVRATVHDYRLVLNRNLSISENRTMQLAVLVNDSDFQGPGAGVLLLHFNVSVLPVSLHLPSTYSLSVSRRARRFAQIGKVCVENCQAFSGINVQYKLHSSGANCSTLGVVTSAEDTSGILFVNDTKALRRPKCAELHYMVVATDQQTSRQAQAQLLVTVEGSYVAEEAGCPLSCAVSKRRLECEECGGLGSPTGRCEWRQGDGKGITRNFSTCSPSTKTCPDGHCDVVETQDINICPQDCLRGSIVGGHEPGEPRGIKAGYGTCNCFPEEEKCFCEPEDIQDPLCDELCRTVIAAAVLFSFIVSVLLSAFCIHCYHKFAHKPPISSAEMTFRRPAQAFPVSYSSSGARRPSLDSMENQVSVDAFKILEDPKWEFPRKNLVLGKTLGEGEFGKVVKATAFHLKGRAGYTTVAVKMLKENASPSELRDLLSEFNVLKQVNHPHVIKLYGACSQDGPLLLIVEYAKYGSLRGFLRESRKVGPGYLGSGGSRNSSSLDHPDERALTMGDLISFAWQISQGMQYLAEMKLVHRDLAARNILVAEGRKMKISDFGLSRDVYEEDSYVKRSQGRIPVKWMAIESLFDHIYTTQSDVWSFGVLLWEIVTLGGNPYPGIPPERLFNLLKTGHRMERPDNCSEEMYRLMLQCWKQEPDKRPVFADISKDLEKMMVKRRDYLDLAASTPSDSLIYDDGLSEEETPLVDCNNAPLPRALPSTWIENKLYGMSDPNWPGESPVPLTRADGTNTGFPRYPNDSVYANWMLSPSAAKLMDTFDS

Measured: % residual kinase activity

CN1CCN(c2cnc3c(C4CCN(C(=O)c5ccc(OC(F)(F)F)cc5N)CC4)ncnc3c2)CC1 [BAY-885]
inactive: [1] 104% | [2] 113% | [3] 94% | [4] 93% | [5] 122%
